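Results reflect a 48-hour exposure of cells in 96-well plates to compound at five concentrations. The concentration for 50% growth inhibition is given as GI50.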 The source made the active and inactive calls. Rule as the data show it: active = GI50 up to about 1.1 µM and inactive = higher.
What was measured:
Experiment in all cases: NCI-60 cell line screen, 48 h
786-0 = test system: 786-0
SF-268 = test system: SF-268
PC-3 = test system: PC-3
RPMI-8226 = test system: RPMI-8226
MOLT-4 = test system: MOLT-4
TK-10 = test system: TK-10
MDA-MB-231 = test system: MDA-MB-231
OVCAR-4 = test system: OVCAR-4
DU-145 = test system: DU-145
RXF 393 = test system: RXF 393
M14 = test system: M14
HT-29 = test system: HT-29
KM12 = test system: KM12
MDA-N = test system: MDA-N
SK-MEL-28 = test system: SK-MEL-28
SW-620 = test system: SW-620
LOX IMVI = test system: LOX IMVI
HL-60 = test system: HL-60
COLO 205 = test system: COLO 205
NCI-H522 = test system: NCI-H522
SK-OV-3 = test system: SK-OV-3
HOP-92 = test system: HOP-92
SF-295 = test system: SF-295
A549 = test system: A549
OVCAR-8 = test system: OVCAR-8
UACC-257 = test system: UACC-257
IGROV-1 = test system: IGROV-1
Malme-3M = test system: Malme-3M
SK-MEL-2 = test system: SK-MEL-2
NCI/ADR-RES = test system: NCI/ADR-RES
SNB-75 = test system: SNB-75
UACC-62 = test system: UACC-62
NCI-H226 = test system: NCI-H226
SK-MEL-5 = test system: SK-MEL-5
MCF7 = test system: MCF7
MDA-MB-435 = test system: MDA-MB-435
EKVX = test system: EKVX
ACHN = test system: ACHN
SNB-19 = test system: SNB-19
SF-539 = test system: SF-539
NCI-H23 = test system: NCI-H23
UO-31 = test system: UO-31
HCT-15 = test system: HCT-15
HOP-62 = test system: HOP-62
CAKI-1 = test system: CAKI-1
A498 = test system: A498
Hs-578T = test system: Hs-578T
U-251 = test system: U-251
NCI-H460 = test system: NCI-H460
HCC 2998 = test system: HCC 2998
OVCAR-3 = test system: OVCAR-3
OVCAR-5 = test system: OVCAR-5
T47D = test system: T47D
K562 = test system: K562
CCRF-CEM = test system: CCRF-CEM
HCT-116 = test system: HCT-116
SN12C = test system: SN12C

COC(=O)C1C(=O)N(C)C(=O)N2CCCC12 (stereo not drawn) was tested, and the GI50 (786-0) was > 100 µM (inactive), the GI50 (SF-268) was > 100 µM (inactive) and the GI50 (PC-3) was > 100 µM (inactive). For the same molecule, the GI50 (RPMI-8226) was > 100 µM (inactive), the GI50 (MOLT-4) was > 100 µM (inactive) and the GI50 (TK-10) was > 100 µM (inactive). The GI50 (MDA-MB-231) was > 100 µM (inactive), the GI50 (OVCAR-4) was > 100 µM (inactive) and the GI50 (DU-145) was > 100 µM (inactive). For the same molecule, the GI50 (RXF 393) was 71.8 µM (inactive), the GI50 (M14) was > 100 µM (inactive) and the GI50 (HT-29) was > 100 µM (inactive). For the same molecule, the GI50 (KM12) was > 100 µM (inactive), the GI50 (MDA-N) was > 100 µM (inactive) and the GI50 (SK-MEL-28) was 1.4 µM (inactive). The GI50 (SW-620) was > 100 µM (inactive), the GI50 (LOX IMVI) was > 100 µM (inactive) and the GI50 (HL-60) was > 100 µM (inactive). The GI50 (COLO 205) was > 100 µM (inactive), the GI50 (NCI-H522) was > 100 µM (inactive) and the GI50 (SK-OV-3) was > 100 µM (inactive). For the same molecule, the GI50 (HOP-92) was > 100 µM (inactive), the GI50 (SF-295) was > 100 µM (inactive) and the GI50 (A549) was > 100 µM (inactive). For the same molecule, the GI50 (OVCAR-8) was > 100 µM (inactive), the GI50 (UACC-257) was > 100 µM (inactive) and the GI50 (IGROV-1) was > 100 µM (inactive). For the same molecule, the GI50 (Malme-3M) was > 100 µM (inactive), the GI50 (SK-MEL-2) was > 100 µM (inactive) and the GI50 (NCI/ADR-RES) was > 100 µM (inactive). The GI50 (SNB-75) was > 100 µM (inactive), the GI50 (UACC-62) was > 100 µM (inactive) and the GI50 (NCI-H226) was > 100 µM (inactive). For the same molecule, the GI50 (SK-MEL-5) was > 100 µM (inactive), the GI50 (MCF7) was > 100 µM (inactive) and the GI50 (MDA-MB-435) was > 100 µM (inactive). The GI50 (EKVX) was > 100 µM (inactive), the GI50 (ACHN) was > 100 µM (inactive) and the GI50 (SNB-19) was > 100 µM (inactive). The GI50 (SF-539) was > 100 µM (inactive), the GI50 (NCI-H23) was > 100 µM (inactive) and the GI50 (UO-31) was > 100 µM (inactive). The GI50 (HCT-15) was > 100 µM, the GI50 (HOP-62) was > 100 µM (inactive) and the GI50 (CAKI-1) was > 100 µM (inactive). The GI50 (A498) was > 100 µM (inactive), the GI50 (Hs-578T) was > 100 µM (inactive) and the GI50 (U-251) was > 100 µM (inactive). The GI50 (NCI-H460) was > 100 µM (inactive), the GI50 (HCC 2998) was > 100 µM (inactive) and the GI50 (OVCAR-3) was > 100 µM (inactive). The GI50 (OVCAR-5) was > 100 µM (inactive), the GI50 (T47D) was > 100 µM (inactive) and the GI50 (K562) was > 100 µM (inactive). The GI50 (CCRF-CEM) was > 100 µM (inactive).

For O=C(Nc1ccc(S(=O)(=O)/N=c2\ncccn2C(=O)C(C(F)(F)F)C(F)(F)F)cc1)C(C(F)(F)F)C(F)(F)F, the GI50 (786-0) was > 100 µM (inactive), the GI50 (SF-268) was > 100 µM (inactive) and the GI50 (PC-3) was > 100 µM (inactive). The GI50 (RPMI-8226) was > 100 µM (inactive), the GI50 (MOLT-4) was > 100 µM (inactive) and the GI50 (TK-10) was > 100 µM (inactive). The GI50 (MDA-MB-231) was > 100 µM (inactive), the GI50 (OVCAR-4) was > 100 µM (inactive) and the GI50 (DU-145) was > 100 µM (inactive). For the same molecule, the GI50 (RXF 393) was > 100 µM (inactive), the GI50 (M14) was > 100 µM (inactive) and the GI50 (HT-29) was > 100 µM (inactive). The GI50 (KM12) was > 100 µM (inactive), the GI50 (MDA-N) was > 100 µM (inactive) and the GI50 (SK-MEL-28) was > 100 µM (inactive). For the same molecule, the GI50 (LOX IMVI) was > 100 µM (inactive), the GI50 (HL-60) was > 100 µM (inactive) and the GI50 (COLO 205) was > 100 µM (inactive). For the same molecule, the GI50 (NCI-H522) was > 100 µM (inactive), the GI50 (SK-OV-3) was > 100 µM (inactive) and the GI50 (SF-295) was > 100 µM (inactive). For the same molecule, the GI50 (A549) was > 100 µM (inactive), the GI50 (OVCAR-8) was > 100 µM (inactive) and the GI50 (UACC-257) was > 100 µM (inactive). The GI50 (IGROV-1) was > 100 µM (inactive), the GI50 (Malme-3M) was 49.2 µM (inactive) and the GI50 (SK-MEL-2) was > 100 µM (inactive). The GI50 (NCI/ADR-RES) was > 100 µM (inactive), the GI50 (SNB-75) was 80.7 µM (inactive) and the GI50 (UACC-62) was > 100 µM (inactive). The GI50 (NCI-H226) was > 100 µM (inactive), the GI50 (SK-MEL-5) was > 100 µM (inactive) and the GI50 (MCF7) was > 100 µM (inactive). For the same molecule, the GI50 (MDA-MB-435) was > 100 µM (inactive), the GI50 (EKVX) was > 100 µM (inactive) and the GI50 (HCT-116) was > 100 µM (inactive). The GI50 (ACHN) was > 100 µM (inactive), the GI50 (SNB-19) was > 100 µM (inactive) and the GI50 (SF-539) was > 100 µM (inactive). For the same molecule, the GI50 (NCI-H23) was > 100 µM (inactive), the GI50 (HCT-15) was > 100 µM and the GI50 (HOP-62) was > 100 µM (inactive). For the same molecule, the GI50 (CAKI-1) was 0.0368 µM (active), the GI50 (A498) was > 100 µM (inactive) and the GI50 (Hs-578T) was > 100 µM (inactive). The GI50 (U-251) was > 100 µM (inactive), the GI50 (NCI-H460) was > 100 µM (inactive) and the GI50 (HCC 2998) was > 100 µM (inactive). For the same molecule, the GI50 (OVCAR-3) was > 100 µM (inactive), the GI50 (OVCAR-5) was > 100 µM (inactive) and the GI50 (T47D) was > 100 µM (inactive). The GI50 (K562) was > 100 µM (inactive), the GI50 (CCRF-CEM) was > 100 µM (inactive) and the GI50 (SN12C) was > 100 µM (inactive).

In the case of CCOC(=O)C1=CC(C)(C(=O)OCC)Nc2c(nc(OC)[nH]c2=O)N1 (stereo not drawn), the GI50 (786-0) is reported as > 10 µM (inactive), the GI50 (SF-268) is reported as > 10 µM (inactive) and the GI50 (PC-3) is reported as > 10 µM (inactive). For the same molecule, the GI50 (RPMI-8226) was > 10 µM (inactive), the GI50 (MOLT-4) was > 10 µM (inactive) and the GI50 (TK-10) was > 10 µM (inactive). The GI50 (MDA-MB-231) was > 10 µM (inactive), the GI50 (OVCAR-4) was > 10 µM (inactive) and the GI50 (DU-145) was > 10 µM (inactive). For the same molecule, the GI50 (RXF 393) was > 10 µM (inactive), the GI50 (M14) was > 10 µM (inactive) and the GI50 (HT-29) was > 10 µM (inactive). The GI50 (KM12) was > 10 µM (inactive), the GI50 (MDA-N) was > 10 µM (inactive) and the GI50 (SK-MEL-28) was > 10 µM (inactive). For the same molecule, the GI50 (SW-620) was > 10 µM (inactive), the GI50 (LOX IMVI) was > 10 µM (inactive) and the GI50 (COLO 205) was > 10 µM (inactive). The GI50 (NCI-H522) was > 10 µM (inactive), the GI50 (SK-OV-3) was > 10 µM (inactive) and the GI50 (HOP-92) was > 10 µM (inactive). For the same molecule, the GI50 (SF-295) was > 10 µM (inactive), the GI50 (A549) was > 10 µM (inactive) and the GI50 (OVCAR-8) was > 10 µM (inactive). The GI50 (UACC-257) was > 10 µM (inactive), the GI50 (IGROV-1) was > 10 µM (inactive) and the GI50 (Malme-3M) was > 10 µM (inactive). The GI50 (SK-MEL-2) was > 10 µM (inactive), the GI50 (NCI/ADR-RES) was > 10 µM (inactive) and the GI50 (SNB-75) was > 10 µM (inactive). For the same molecule, the GI50 (NCI-H226) was > 10 µM (inactive), the GI50 (SK-MEL-5) was > 10 µM (inactive) and the GI50 (MCF7) was > 10 µM (inactive). The GI50 (EKVX) was > 10 µM (inactive), the GI50 (HCT-116) was > 10 µM (inactive) and the GI50 (ACHN) was > 10 µM (inactive). The GI50 (SNB-19) was > 10 µM (inactive), the GI50 (SF-539) was > 10 µM (inactive) and the GI50 (NCI-H23) was > 10 µM (inactive). The GI50 (UO-31) was > 10 µM (inactive), the GI50 (HCT-15) was > 10 µM and the GI50 (HOP-62) was > 10 µM (inactive). For the same molecule, the GI50 (CAKI-1) was > 10 µM (inactive), the GI50 (A498) was > 10 µM (inactive) and the GI50 (Hs-578T) was > 10 µM (inactive). For the same molecule, the GI50 (U-251) was > 10 µM (inactive), the GI50 (NCI-H460) was > 10 µM (inactive) and the GI50 (HCC 2998) was > 10 µM (inactive). For the same molecule, the GI50 (OVCAR-3) was > 10 µM (inactive), the GI50 (OVCAR-5) was > 10 µM (inactive) and the GI50 (T47D) was > 10 µM (inactive). The GI50 (K562) was > 10 µM (inactive), the GI50 (CCRF-CEM) was > 10 µM (inactive) and the GI50 (SN12C) was > 10 µM (inactive).
